Patent EP1285919A1, “C10 Carbonate substituted taxanes as antitumor agents” (Florida State University Research Foundation, Inc., priority 2001, dated 2003)
Read-outs that look alike come from different tables or passages of the source.

How the values were obtained:
SK-MES carcinoma = tested on: SK-MES carcinoma
Procedure: (§1) In Vivo Evaluation of Antitumor Compounds Against Human Lung Carcinoma Xenografts
(§2) The compounds were prepared in the manner as described for Solution 2 of Example 10. Taxol (paclitaxel, Bristol Meyers Squibb), used as a control, was obtained as the marketed pharmaceutical drug.
(§3) Taxol itself was given as a split i.v. dose of 36 mg/kg, with the two 18 mg/kg doses separated by one hour. Vehicle control animals were dosed twice intravenously with half the total volume being given separated by one hour. The study was terminated on Day 60.
(§4) The results are summarized in Table 1 and include mean days of survival (MDS), number of toxic deaths, number of survivors, number of complete or partial responses, and number with stable disease. The mean days of survival is the number of days after which a SKMES neoplasm reached a size of 1.5 g and the animal was euthanized. A complete response is obtained if the tumor is not palpable at the end of the study. A partial response is obtained if the tumor shrinks to a size smaller than its size on Day 1 of the study.
(§5) A tumor scoring system was designed to provide a more quantitative ranking of efficacy (therapeutic potential) among the antitumor agents evaluated against the different human solid tumor xenografts. Each mouse in a study was given a score of from 1 to 10 at the end of the study. The scores can be summarized as follows:
(§6) The individual score for each mouse was averaged into a mean score for each treatment group. […]

HCT116 = assay: In vitro cytotoxicity, cell colony formation assay; assay type: cell-based; conditions: read-out: IN VITRO ID 50
Procedure: In Vitro cytotoxicity measured by the cell colony formation assay
Four hundred cells (HCT116) were plated in 60 mm Petri dishes containing 2.7 mL of medium (modified McCoy's 5a medium containing 10% fetal bovine serum and 100 units/mL penicillin and […] streptomycin). The cells were incubated in a CO2 incubator at 37 °C for 5 h for attachment to the bottom of Petri dishes. The compounds identified in Example 2 were made up fresh in medium at ten times the final concentration, and then 0.3 mL of this stock solution was added to the 2.7 mL of medium in the dish. The cells were then incubated with drugs for 72 h at 37 ° C. At the end of incubation the drug-containing media were decanted, the dishes were rinsed with 4 mL of Hank's Balance Salt Solution (HBSS), 5 mL of fresh medium was added, and the dishes were returned to the incubator for colony formation. The cell colonies were counted using a colony counter after incubation for 7 days.

[1] = tested on: NCI-H1299 (H1299) carcinoma
Procedure: as §1, §2, §3, §4, §5, §6
The treatment protocol for the H1299 test was identical to the SK-MES test protocol. […]

[2] = tested on: SKMES Human Lung Carcinoma Xenograft
Procedure: The compound was administered as a single bolus by the oral route in a study to investigate the efficacy of this compound against the SKMES human lung cancer xenograft.
Female Nu/Nu mice (6-8 weeks of age; implanted with 1 mm^3 SKMES lung carcinoma fragments in the flank) were sorted into four treatment groups of six mice each. SKMES size ranges and group mean SKMES size ranges were 126-448 mg and 238-241 mg, respectively. […] Treatments were administered as a single oral bolus on Day 1, and the study was terminated on Day 60.
The results are summarized in Table 13 and include mean days of survival (MDS), number of toxic deaths, number of survivors, number of complete or partial responses, and number with stable disease. The mean days of survival is the number of days after which a SKMES neoplasm reached a size of 2.0 g and the animal was euthanized. A complete response is obtained if the tumor is not palpable at the end of the study. A partial response is obtained if the tumor shrinks to a size smaller than its size on Day 1 of the study.
The total response rate was 100% with four complete responses and two partial responses. The total response rate is defined as the percentage of evaluable animals (excluding deaths due to procedure or toxicity) in a group that experience complete or partial responses at the termination of the study.

[3] = tested on: A2780 Human Ovarian Carcinoma Xenografts; assay: In vivo evaluation against A2780 ovarian carcinoma xenografts; set-up: species or system NCr-nude mice
Procedure: In Vivo Evaluation of Antitumor Compounds Against A2780 Human Ovarian Carcinoma Xenografts
The A2780 group mean size range was 237-243 mg. Dosing was initiated on Day 1. […] Treatment groups are detailed in Table 5.

[4] = tested on: A375 Human Melanoma Xenografts; assay: In vivo evaluation against A375 melanoma xenografts
Procedure: In Vivo Evaluation of Antitumor Compounds Against A375 Human Melanoma Xenografts
Antitumor compounds were prepared in a vehicle of 5% ethanol, 5% Cremophor and 90% isotonic saline in the manner as described for Solution 1 of Example 10. Taxol (paclitaxel; Bristol Meyers Squibb) and Taxotere (docetaxel; Rhône-Poulenc Rorer) were obtained as the marketed pharmaceutical drugs. The dosing volume was 0.3 ml per 20 g mouse.
Female NCr-nude mice were implanted subcutaneously with 1 mm^3 A375 melanoma fragments in the flank were sorted into treatment groups of six mice each, except the Taxotere treatment group which was a group of seven mice. […] Dosing was initiated on Day 1. The antitumor compounds were given i.v. at an estimated maximum tolerated dose (MTD) appropriate for each agent on a qd x 1 schedule (single administration of compound). The i.v. taxol was given on the qd x 1 schedule as two split doses (one hour between) of 12 mg/kg per split dose (total dose = 24 mg/kg). Taxol was also administered i.p. on a qd x 5 schedule at a daily dose of 18 mg/kg. Taxotere was given i.v. on a qd x 1 schedule at a dose of 70 mg/kg. The vehicle was administered i.v. to control mice in Group 1 on the qd x 1 schedule. The study was terminated on Day 60. Treatment groups are detailed in Table 7.
The results are summarized in Table 8 and include mean days of survival (MDS), number of toxic deaths, number of survivors, number of complete or partial responses, and number with stable disease. The mean days of survival is the number of days after which a neoplasm reached a size of 2.0 g and the animal was euthanized. A complete response is obtained […].

[5] = tested on: VM46 Human Colon Carcinoma; assay: In vivo evaluation against VM46 colon carcinoma xenografts; set-up: species or system NCr-nude mice
Procedure: In Vivo Evaluation of Antitumor Compounds Against VM46 Human Colon Carcinoma
The VM46 tumor group mean size range was 181-188 mg. Dosing was initiated on Day 1. […] Taxotere was given i.v. at a dose of 70 mg/kg on a qd x 1 schedule. […] The study was terminated on Day 64. Treatment groups are detailed in Table 11.

[6] = number of mice of six, i.v. split dose qd x 1, Taxol 36 mg/kg, 1755 49 mg/kg
[7] = HCT116, 72 h with drug, colonies counted after 7 days, concentration producing 50% inhibition of colony formation
[8] = 1755 49 mg/kg single oral bolus, six mice
[9] = Group 4: 49 mg/kg single oral bolus Day 1, 6 mice, study to Day 60
[10] = Group 5: 70 mg/kg i.v. qd x 1, group of six mice, study to Day 60
[11] = i.v. qd x 1, Taxol 24 mg/kg, Taxotere 70 mg/kg
[12] = i.v. qd x 1, Taxol 24 mg/kg, Taxotere 70 mg/kg, 2.0 g cut-off
[13] = Group 5: 70 mg/kg i.v. qd x 1, 7 mice, study to Day 60
[14] = Group 5: 70 mg/kg i.v. qd x 1, 6 mice, study to Day 64

## CCOC(=O)OC1C(=O)C2(C)C(O)CC3OCC3(OC(C)=O)C2C(OC(=O)c2ccccc2)C2(O)CC(OC(=O)C(O)C(NC(=O)OC(C)(C)C)c3cccs3)C(C)=C1C2(C)C (stereo not drawn) [Compound 1755, 3'-Desphenyl-3'-(2-thienyl)-10-ethoxycarbonyl-10-deacetyl taxotere]
SK-MES carcinoma; 1755 49 mg/kg i.v.
  tolerability: well tolerated
SK-MES carcinoma; [6]
  Toxic Deaths: 0
SK-MES carcinoma; number of mice of six, study ended Day 60
  Survivors: 6
SK-MES carcinoma; number of mice of six, tumor below 1.5 g at end of study
  Stable Disease: 1
SK-MES carcinoma; number of mice of six, tumor smaller than on Day 1
  Partial Response: 0
SK-MES carcinoma; tumor score 1 to 10 per mouse, averaged per group (10 = complete response)
  Mean Score: 9.2 ± 0.8
HCT116; [7]
  IC50: < 1 nM
[1]; number of mice of six
  Partial Response: 0
  Stable Disease: 1
  Survivors: 4
[1]; [6]
  Toxic Deaths: 2
[1]; tumor score 1 to 10 per mouse, averaged per group
  Mean Score: 5.8 ± 2
[2]; 1755 49 mg/kg single oral bolus Day 1, six mice, study ended Day 60
  total response rate: 100%
[2]; [8]
  complete responses: four
  partial responses: two
[2]; [9]
  % Total Response: 100%
  Complete Response: 4
  Partial Response: 2
  Stable Disease: 0
  Survivors: 6
  Toxic Deaths: 0

## CCOC(=O)OC1C(=O)C2(C)C(O)CC3OCC3(OC(C)=O)C2C(OC(=O)c2ccccc2)C2(O)CC(OC(=O)C(O)C(NC(=O)c3ccccc3)c3ccco3)C(C)=C1C2(C)C (stereo not drawn) [Compound 4090]
HCT116; [7]
  IC50: < 1 nM

## CCOC(=O)OC1C(=O)C2(C)C(O)CC3OCC3(OC(C)=O)C2C(OC(=O)c2ccccc2)C2(O)CC(OC(=O)C(O)C(C=C(C)C)NC(=O)OCC(C)C)C(C)=C1C2(C)C (stereo not drawn) [Compound 5155]
HCT116; [7]
  IC50: < 10 nM

## CCOC(=O)OC1C(=O)C2(C)C(O)CC3OCC3(OC(C)=O)C2C(OC(=O)c2ccccc2)C2(O)CC(OC(=O)C(O)C(NC(=O)OC(C)(C)C)C3CC3)C(C)=C1C2(C)C (stereo not drawn) [Compound 5171]
HCT116; [7]
  IC50: < 1 nM

## CCOC(=O)OC1C(=O)C2(C)C(O)CC3OCC3(OC(C)=O)C2C(OC(=O)c2ccccc2)C2(O)CC(OC(=O)C(O)C(NC(=O)C(C)C)c3ccco3)C(C)=C1C2(C)C (stereo not drawn) [Compound 6466]
HCT116; [7]
  IC50: < 10 nM

## CC(=O)O[C@@]12CO[C@@H]1C[C@H](O)[C@@]1(C)C(=O)[C@H](O)C3=C(C)[C@@H](OC(=O)[C@H](O)[C@@H](NC(=O)OC(C)(C)C)c4ccccc4)C[C@@](O)([C@@H](OC(=O)c4ccccc4)[C@H]21)C3(C)C [Docetaxel, docetaxel]
[3]; Group 5: 70 mg/kg i.v. qd x 1, group of six mice, n=5, 2.0 g endpoint, study to Day 60
  MDS (n): 27.4 ± 3.5 (5) days
[3]; [10]
  Complete Response: 0
  Mean Score: 2.5 ± 0.3
  Partial Response: 0
  Stable Disease: 0
  Survivors: 0
  Toxic Deaths: 0
[3]; [11]
  increase in survival / survival extension compared to Group 1 controls: 134%
[3]; [12]
  MDS: 27.4 days
HCT116; Homo sapiens, HCT-116
  IC50: 0.6 nM
[4]; Group 5: 70 mg/kg i.v. qd x 1, 7 mice, n=7, 2.0 g endpoint, study to Day 60
  MDS (n): 21.5 ± 0.5(7) days
[4]; [13]
  Complete Response: 0
  Mean Score: 2 ± 0
  Partial Response: 0
  Stable Disease: 0
  Survivors: 0
  Toxic Deaths: 0
[4]; [11]
  survival extension compared to Group 1 controls: 49%
[4]; [12]
  MDS: 21.5 days
[5]; Group 5: 70 mg/kg i.v. qd x 1, 6 mice, n=6, 1.5 g endpoint, study to Day 64
  MDS (n): 45.3 ± 3.6(6) days
[5]; [14]
  Complete Response: 0
  Mean Score: 2 ± 0
  Partial Response: 0
  Stable Disease: 0
  Toxic Deaths: 0
[5]; i.v. qd x 1, Taxol 24 mg/kg (four mice), Taxotere 70 mg/kg, 1.5 g endpoint
  MDS: 45.3 days
